{"source": "patent US11000482B2", "about": "“Fabrication of a suramin-loaded nanoparticle and its application” (UNIVERSITY OF SOUTH CAROLINA, priority 2018, dated 2021)", "key": {"[1]": {"system": "MDA-MB-231 cells", "experiment": "MTT cell viability assay with combination index analysis", "type": "cell-based, human", "description": "The anticancer activities of the combination of DOX and SM were investigated with an MTT colorimetric assay. Cells with or without a/b FGF treatment were seeded in 96-well plates at an initial density of 20,000 cells/well. After 24 hours of incubation, the medium was replaced with 150 μL of fresh medium containing different treatments, including DOX, SM, and the combination of DOX and SM, and continued to be incubated for an additional 24 hours or 48 hours. Afterwards, the media were replaced with 100 μL fresh media containing 1 mg/mL MTT reagent and incubated for another 4 hours. The formed MTT crystals were dissolved with a stop solution and the final optical density of the medium was measured using a microplate reader (ELX808, Bio-Tech Instrument, Inc.) at λ=595 nm. A combination index (CI) analysis based on the Chou-Talalay method was performed using CalcuSyn software."}, "[2]": {"experiment": "In vitro release kinetics by dialysis in PBS", "type": "physicochemical", "conditions": "within 1 hour, free drug", "description": "Two milliliters of GCS-SM/DOX NPs were loaded in dialysis bags (MWCO: 6-8 KDa, Spectrum laboratories) and were put into 25 mL of PBS (pH 7.4, 100 mM) at 37° C. under continuous stirring. At predesigned time points, 1 mL of media was withdrawn. Concentrations of SM or DOX were determined by UV-Vis spectrometer (Beckman, DU650) at 312 nm and 480 nm, respectively. All experiments were carried out in triplicate independently."}, "[3]": {"system": "MDA-MB-231 cells", "experiment": "Cellular uptake and subcellular distribution of DOX (FACS, confocal, cell fractionation)", "type": "cell-based, human", "description": "Cellular uptake of GCS-SM/DOX NPs was quantified by flow cytometry and confocal microscopy. The intracellular distribution of the DOX was measured by cell fraction assay. MDA-MB-231 cells were seeded in 12 well plates at 200,000 cells/well and treated with DOX or GCS-SM/DOX NPs at the DOX concentration of 1 μM for 3 hours. Afterwards, cells were washed 3 times with cold PBS to remove un-bound DOX or nanoparticles. Cells were collected, fixed in 4% formaldehyde, and analyzed by FACS (BD Accuri C6, BD Biosciences).\nTo further investigate the uptake behaviors of nanoparticles, confocal microscopy was employed. MDA-MB-231 cells were seeded in petri dishes and treated with DOX or GCS-SM/DOX NPs at a DOX concentration of 1 μg/mL. After 3 hours of co-incubation, cells were washed 3 times and images were taken with a Zeiss 710 LM confocal microscope.\nGCS-SM/DOX NPs were incubated with MDA-MB-231 cells at 37° C. for 1 hour. Cells were washed 3 times, then collected by scraping. Cells were subjected to subcellular fractionation after the treatment. […] DOX uptake amount was quantified by the fluorescent intensity at the excitation at 485 nm with the emission at 585 nm. The protein concentration of cytosol and nuclear fraction were quantified by BCA assay kit."}, "[4]": {"system": "MDA-MB-231 cells", "experiment": "Wound healing (cell migration) assay", "type": "cell-based, human", "conditions": "MDA-MB-231 pretreated with a/b FGF, live cell imaging", "description": "The migration of breast cancer cells was evaluated with a wound healing assay. Living videos of cell migration in a 24-well plate were acquired with a Zeiss 710 LM confocal microscope. MDA-MB-231 cells were pretreated with a/b FGF for 24 hours. After that, a wound was created by scraping the cell monolayer in a straight line with a p200 tip, and cell debris was removed by washing with PBS three times. Cells were incubated with different treatments and allowed to grow in a 37° C. chamber with 5% CO2 for 24 hours. Videos were taken using a confocal microscope with a transmittance channel continuously at 10× magnification."}, "[5]": {"system": "MDA-MB-231/Luc-GFP cells", "experiment": "Breast cancer lung metastasis mouse model (tail vein MDA-MB-231/Luc-GFP)", "type": "in vivo, Female athymic mice (nu/nu)", "description": "All animal experiments were conducted in accordance with NIH regulations and approved by the Institutional Animal Care and Use Committee of the University of South Carolina. Female athymic mice at the age of 6 to 8 weeks (nu/nu) were obtained from Jackson laboratory. […] Mice were then randomly divided into 5 groups and received the following treatments: 1) saline only; 2) SM at the dose of 3.5 mg/kg once per week; 3) free SM and DOX at the dose of 3.5 mg/kg of SM and 0.5 mg/kg of DOX once per week; 4) GCS-SM NPs at the dose of 3.5 mg/kg of SM once per week; 5) GCS-SM/DOX NPs at the dose of 3.5 mg/kg of SM and 0.5 mg/kg of DOX (molar ratio of SM to DOX is 17:1) once per week. The whole treating procedure lasted for two months and the progression of tumors was monitored every week by luminescence with an IVIS Lumia system after i.v. injection of luciferin (30 mg/mL, 50 μL). Bodyweights of the mice were recorded at the same time. At the endpoint of each mouse, organs were isolated and collected. The weights of the lungs were recorded. Fluorescent images of the lungs were also captured. The collected organs were fixed in 10% neutralized formalin solution and embedded in paraffin."}, "[6]": {"experiment": "Histology (H&E) of lung, liver, kidney and TEM of heart of treated mice", "type": "in vivo, Female athymic mice (nu/nu)", "description": "All animal experiments were conducted in accordance with NIH regulations and approved by the Institutional Animal Care and Use Committee of the University of South Carolina. Female athymic mice at the age of 6 to 8 weeks (nu/nu) were obtained from Jackson laboratory. MDA-MB-231/Luc-GFP cells were implanted by tail vein injection (2×10^6 cells in 100 μL PBS). Mice were then randomly divided into 5 groups and received the following treatments: 1) saline only; 2) SM at the dose of 3.5 mg/kg once per week; 3) free SM and DOX at the dose of 3.5 mg/kg of SM and 0.5 mg/kg of DOX once per week; 4) GCS-SM NPs at the dose of 3.5 mg/kg of SM once per week; 5) GCS-SM/DOX NPs at the dose of 3.5 mg/kg of SM and 0.5 mg/kg of DOX (molar ratio of SM to DOX is 17:1) once per week. The whole treating procedure lasted for two months and the progression of tumors was monitored every week by luminescence with an IVIS Lumia system after i.v. injection of luciferin (30 mg/mL, 50 μL). Bodyweights of the mice were recorded at the same time. At the endpoint of each mouse, organs were isolated and collected. The weights of the lungs were recorded. Fluorescent images of the lungs were also captured. The collected organs were fixed in 10% neutralized formalin solution and embedded in paraffin.\nTissue sections of 5 μm thickness were obtained from the formalin fixed, paraffin embedded tissue blocks with a microtome. […]"}, "[7]": {"system": "human prostate PC3 cells", "conditions": "in the presence of doxorubicin; cited from earlier work"}, "[8]": {"system": "Human umbilical vein endothelial cells (HUVECs)", "experiment": "Endothelial tube formation assay", "type": "cell-based", "conditions": "HUVEC on Geltrex", "description": "Human umbilical vein endothelial cells (HUVECs) were cultured and maintained in a complete EGM Medium. Cells were stained with Celltracker Deep red (1 μM) for 30 minutes prior to the experiment. One hundred and fifty microliters (μL) of Geltrex® (Thermofisher) was added to each well in a 24-well plate and allowed to be polymerized for 30 minutes at 37° C. HUVEC cells were seeded in each well at a density of 2×10^5 cells/mL. SM, GCS, and GCS-SM NPs at concentrations of 10 μM and 20 μM were mixed with cells prior to seeding in the coated gel layer. The tube formation was photographed at 6 hours and 20 hours with an inverted phase contrast microscope (Canon Powershot A640) in a randomly selected field under 10× magnification, and the number of formed tubes and length of the tubes were quantified manually by Image J. Fluorescent images of cells were photographed by Zeiss 710 LM confocal microscope under 10× magnification."}, "[9]": {"system": "CD31 stained microvessels in tumor tissues", "experiment": "CD31 immunohistochemistry of tumor microvessels", "type": "in vivo, Female athymic mice (nu/nu)", "conditions": "CD31 IHC", "description": "Tissue sections of 5 μm thickness were obtained from the formalin fixed, paraffin embedded tissue blocks with a microtome. The standard hematoxylin and eosin staining was performed in the lung, liver and kidney tissue sections of each group. To study the tumor neovasculature, CD31 IHC was applied to identify the intra-tumor blood vessel distribution. The section was deparaffinized and treated for 30 minutes with 0.5 M Tris buffer (pH 10) at 95° C. for antigen retrieval. Sections were blocked in 5% goat serum for 20 min at room temperature. The sections were blocked with peroxidase block for 5 minutes and incubated with a primary antibody (rabbit polyclonal anti-CD31 antibody) diluted with 1% BSA (1:50) for 1 hour at room temperature, followed by the staining with peroxidase labelled polymer for 30 minutes at room temperature. The sections were then developed with the substrate-DAB for 5 minutes at room temperature and counterstained with Gill's Hematoxylin for 10 seconds. The slides were mounted with ProLong® Gold Antifade Mountant and imaged at 40× magnification with a microscope."}, "[10]": {"system": "MDA-MB-231 cells", "experiment": "Transwell Matrigel cell invasion assay", "type": "cell-based, human", "conditions": "40 μM SM, 16 hours; control 952", "description": "BD cell culture inserts with a pore size of 8 μm (BD, Biosciences) were pre-coated with 100 μL of Matrigel at the concentration of 0.2 mg/mL (dilution from BD Matrigel stock 10 mg/mL with coating buffer). MDA-MB-231 cells were seeded at a density of 70,000 cells per 50 μL in the inserts in an FBS-free DMEM medium. SM or GCS-SM NPs was then added to the inserts together with 50 μL serum free medium. Each lower chamber was supplied with 1.2 mL 10% FBS containing medium supplemented with different treatments that were the same as each respective top chamber. After 16 hours of incubation, the inserts were washed with PBS and fixed with methanol. Subsequently, cells were stained with hematoxylin and washed twice with PBS. The membrane in each of the inserts was then cut and mounted onto a coverslip, and the cell number was counted with a light microscope under 10× magnification. Each well was imaged at 5 different fields, and the invasion rate was expressed by the average number of cells per microscopic field."}}}
{"smiles": "COc1cccc2c1C(=O)c1c(O)c3c(c(O)c1C2=O)C[C@@](O)(C(=O)CO)C[C@@H]3O[C@H]1C[C@H](N)[C@H](O)[C@H](C)O1", "note": "[DOX, doxorubicin]", "values": [{"measurement": "cytotoxicity of DOX on further increase of SM", "setting": "[1]; SM 20 μM or 100 μM, presence of a/b FGF", "value": "did not additionally boost its cytotoxicity"}, {"measurement": "cytotoxicity of DOX on addition of SM", "setting": "[1]; addition of 10 μM SM, presence of a/b FGF", "value": "greatly enhanced"}, {"measurement": "release of free DOX", "setting": "[2]", "value": "about 75%"}, {"measurement": "DOX cellular uptake", "setting": "[3]; MDA-MB-231 pretreated with a/b FGF, confocal/FACS, 1-6 hours", "value": "entered cells much more slowly than GCS-SM/DOX NPs"}, {"measurement": "subcellular localization of DOX", "setting": "[3]; confocal, after 3 hours of treatment", "value": "still stayed in the cytosol"}]}
{"smiles": "Cc1ccc(C(=O)Nc2ccc(S(=O)(=O)O)c3cc(S(=O)(=O)O)cc(S(=O)(=O)O)c23)cc1NC(=O)c1cccc(NC(=O)Nc2cccc(C(=O)Nc3cc(C(=O)Nc4ccc(S(=O)(=O)O)c5cc(S(=O)(=O)O)cc(S(=O)(=O)O)c45)ccc3C)c2)c1", "note": "[SM, 8,8′-[carbonylbis[imino-3,1-phenylenecarbonylimino (4-methyl-3,1-phenylene)carbonylimino]]bisnaphthalene-1,3,5-trisulphonic acid]", "values": [{"measurement": "cytotoxicity", "setting": "[1]; 200 μM SM, 24 hours, MDA-MB-231", "value": "no cytotoxicity was observed"}, {"measurement": "IC50", "setting": "[1]; Homo sapiens, 48 hours of treatment, MDA-MB-231", "value": 200, "unit": "µM"}, {"measurement": "inhibition of cell proliferation (cytotoxicity)", "setting": "[1]; concentrations up to 200 μM, within 24 h", "value": "neither SM nor GCS-SM NP inhibited cell proliferation"}, {"measurement": "inhibitory effect on cell migration", "setting": "[4]", "value": "only slightly inhibited cell migration"}, {"measurement": "survival rates versus control", "setting": "[5]; Kaplan-Meier at 12 weeks", "value": "moderately increased survival rates"}, {"measurement": "median survival time", "setting": "[5]; Kaplan-Meier at 12 weeks, control 64.5 days", "value": 76.5, "unit": "days"}, {"measurement": "proliferation of cancer cells and metastasis (whole-body luminescence)", "setting": "[5]; SM 3.5 mg/kg and/or DOX 0.5 mg/kg once per week, imaging over 6 weeks", "value": "slowed down compared to the control"}, {"measurement": "body weight change", "setting": "[5]; after 8 weeks of treatment", "value": "did not cause significant weight loss"}, {"measurement": "effect on lung weight", "setting": "[5]; compared to control group", "value": "Neither the SM nor the GCS-SM NP groups showed significant effect on lung weight"}, {"measurement": "kidney histology", "setting": "[6]", "value": "normal kidney histologic structure"}, {"measurement": "lung histology: tumor area", "setting": "[6]", "value": "mild reduction in the occupied area ratio between the tumorous tissue and normal tissue"}, {"measurement": "concentration reversing FGF-induced drug resistance", "setting": "[7]", "value": "1 to 17", "unit": "µM"}, {"measurement": "tube formation ability of HUVECs", "setting": "[8]", "value": "significantly inhibited"}, {"measurement": "formation of new microvessels in tumor tissues", "setting": "[9]", "value": "did not decrease the formation of new blood vessels"}, {"measurement": "number of invaded MDA-MB-231 cells in each view area", "setting": "[10]", "value": 718}]}
